{
  "source": "paper PMC12175894",
  "about": "(Science Advances, 2025)",
  "key": {"5-HT1AR Y96^2.64A [1]": {"target": "T1, 5-HT1AR Y96^2.64A (Homo sapiens, UniProt P08908, Y96A)", "T1 sequence (P08908 1-422 Y96A)": "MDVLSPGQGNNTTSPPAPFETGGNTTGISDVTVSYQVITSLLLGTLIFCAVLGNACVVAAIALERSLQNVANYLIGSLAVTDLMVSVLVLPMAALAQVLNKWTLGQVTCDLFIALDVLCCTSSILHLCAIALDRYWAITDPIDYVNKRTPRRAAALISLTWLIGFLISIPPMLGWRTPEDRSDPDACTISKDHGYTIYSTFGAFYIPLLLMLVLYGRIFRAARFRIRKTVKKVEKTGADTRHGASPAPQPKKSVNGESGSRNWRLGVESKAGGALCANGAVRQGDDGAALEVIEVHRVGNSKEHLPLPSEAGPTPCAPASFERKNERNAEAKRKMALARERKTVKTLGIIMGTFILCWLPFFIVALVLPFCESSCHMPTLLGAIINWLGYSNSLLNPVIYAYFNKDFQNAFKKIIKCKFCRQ", "experiment": "Radioligand competition, displacement of [3H]WAY100635", "type": "binding", "details": "for decrease of affinity when Y96^2.64 and Q97^2.65 were replaced by alanine: Y96A and Q97A mutants vs WT"}, "5-HT1AR Q97^2.65A [2]": {"target": "T2, 5-HT1AR Q97^2.65A (Homo sapiens, UniProt P08908, Q97A)", "T2 sequence (P08908 1-422 Q97A)": "T1 sequence (P08908 1-422 Y96A) with A96Y, Q97A", "experiment": "GloSensor inhibition of cAMP accumulation in HEK293AΔGs", "type": "cell-based", "details": "for Emax: read-out: Emax [% ± SEM], inhibition of cAMP accumulation"}, "5-HT1AR Q97^2.65A [3]": {"target": "T2, 5-HT1AR Q97^2.65A", "experiment": "GloSensor cAMP accumulation in HEK293AΔGi/o", "type": "cell-based", "details": "read-out: Emax [% ± SEM], cAMP accumulation"}, "male C56BL/6 mice [4]": {"system": "male C56BL/6 mice", "experiment": "SNI model of neuropathic pain", "type": "in vivo, mouse"}, "5-HT1AR + Gαz": {"target": "T3, 5-HT1AR + Gαz (Homo sapiens, UniProt P08908)", "T3 construct": "host or cells: HEK293AΔGi/o", "T3 sequence (P08908 whole entry)": "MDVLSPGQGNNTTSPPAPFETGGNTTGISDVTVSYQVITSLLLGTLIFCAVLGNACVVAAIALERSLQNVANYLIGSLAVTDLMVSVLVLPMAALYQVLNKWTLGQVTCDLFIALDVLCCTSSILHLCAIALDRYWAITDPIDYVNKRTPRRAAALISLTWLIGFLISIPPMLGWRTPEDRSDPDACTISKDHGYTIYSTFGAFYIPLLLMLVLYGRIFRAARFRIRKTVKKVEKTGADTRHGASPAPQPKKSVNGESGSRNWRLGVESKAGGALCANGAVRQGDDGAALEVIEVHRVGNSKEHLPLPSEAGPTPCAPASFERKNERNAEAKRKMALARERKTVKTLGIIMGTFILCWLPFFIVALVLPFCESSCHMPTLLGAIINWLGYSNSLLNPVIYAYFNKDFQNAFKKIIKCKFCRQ", "T3 sequence (P19086 2-355 partner limits assumed)": "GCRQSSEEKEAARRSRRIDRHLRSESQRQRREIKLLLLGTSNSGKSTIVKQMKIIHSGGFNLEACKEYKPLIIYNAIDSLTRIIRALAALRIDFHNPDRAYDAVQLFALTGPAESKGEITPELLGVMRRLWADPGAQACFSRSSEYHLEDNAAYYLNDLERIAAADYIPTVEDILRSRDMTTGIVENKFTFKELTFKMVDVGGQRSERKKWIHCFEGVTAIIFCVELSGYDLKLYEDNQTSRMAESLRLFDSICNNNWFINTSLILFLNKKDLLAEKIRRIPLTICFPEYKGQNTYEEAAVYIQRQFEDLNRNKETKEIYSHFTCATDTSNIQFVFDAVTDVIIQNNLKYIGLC", "experiment": "GloSensor cAMP in HEK293AΔGi/o co-transfected with Gαz", "type": "cell-based"}, "5-HT1AR": {"target": "T4, 5-HT1AR (Homo sapiens, UniProt P08908)", "T4 sequence (P08908 1-422)": "T1 sequence (P08908 1-422 Y96A) with A96Y", "experiment": "BRET-based cAMP assay (CAMYEL biosensor) in CHO-K1 cells", "type": "cell-based"}, "5-HT1AR KO mice": {"system": "5-HT1AR KO mice", "experiment": "52°C hot plate in 5-HT1AR KO mice", "type": "in vivo, mouse"}, "[5]": {"target": "T5, 5-HT1AR F112^3.28W + M92^2.60F (Homo sapiens, UniProt P08908, F112W/M92F)", "T5 sequence (P08908 1-422 M92F/F112W)": "T1 sequence (P08908 1-422 Y96A) with M92F, A96Y, F112W", "experiment": "GloSensor inhibition of cAMP accumulation in HEK293AΔGs", "type": "cell-based", "details": "for Emax: read-out: Emax [% ± SEM], inhibition of cAMP accumulation"}, "[6]": {"target": "T5, 5-HT1AR F112^3.28W + M92^2.60F", "experiment": "GloSensor cAMP assay in HEK293A cells", "type": "cell-based"}, "5-HT1AR Y96^2.64A [7]": {"target": "T1, 5-HT1AR Y96^2.64A", "experiment": "GloSensor cAMP accumulation in HEK293AΔGi/o", "type": "cell-based", "details": "read-out: Emax [% ± SEM], cAMP accumulation"}, "male C56BL/6 mice [8]": {"system": "male C56BL/6 mice", "experiment": "52°C hot plate", "type": "in vivo, mouse", "details": "wild-type mice, 10 mg/kg"}, "5-HT1AR wildtype": {"target": "T6, 5-HT1AR wildtype (Homo sapiens, UniProt P08908)", "T6 construct": "host or cells: HEK293T, HEK293A, HEK293AΔGs, HEK293AΔGi/o, HEK293AΔARRB1/B2", "T6 sequence (P08908 1-422)": "T1 sequence (P08908 1-422 Y96A) with A96Y", "experiment": "GloSensor cAMP assay in HEK293A cells", "type": "cell-based"}, "[9]": {"details": "HEK293-A, read-out: Emax [%±SEM], inhibition of cAMP accumulation"}, "[10]": {"details": "HEK293-A; read-out: Emax [%±SEM], inhibition of cAMP accumulation"}},
  "note": "Substitutions are numbered along the chain they refer to. Where two headings read alike, the source gives them in different places.",
  "data": [
    {"smiles": "COc1ccccc1OCCNCCCOc1ccc2c(c1)NC(=O)CO2", "note": "[ST171]", "values": [
      {"measurement": "Ki", "setting": "5-HT1AR Y96^2.64A [1]; 5-HT1AR Y96A, HEK 293T membranes, read-out: Ki [nM ± SEM]", "value": 63, "unit": "nM"},
      {"measurement": "decrease of affinity when Y96^2.64 and Q97^2.65 were replaced by alanine", "setting": "5-HT1AR Y96^2.64A [1]", "value": "more than 150 fold"},
      {"measurement": "EC50", "setting": "5-HT1AR Q97^2.65A [2]; HEK293AΔGs, Q97A, read-out: EC50 [nM ± SEM], inhibition of cAMP accumulation", "value": "8 ± 0.9", "unit": "nM"},
      {"measurement": "Emax", "setting": "5-HT1AR Q97^2.65A [2]", "value": "79 ± 6", "unit": "%"},
      {"measurement": "Emax", "setting": "5-HT1AR Q97^2.65A [3]", "value": "< 5", "unit": "%"},
      {"measurement": "mechanical thresholds of the injured hind paw, SNI model", "setting": "male C56BL/6 mice [4]; 10 mg/kg intraperitoneal", "value": "significantly increased the mechanical thresholds"},
      {"measurement": "Emax", "setting": "5-HT1AR + Gαz", "value": 93, "unit": "%"},
      {"measurement": "Emax", "setting": "5-HT1AR; CHO-K1, CAMYEL, PTX addition; read-out: Emax, cAMP effect in the presence of PTX", "value": "< 5", "unit": "%"},
      {"measurement": "Emax", "setting": "5-HT1AR; CHO-K1, read-out: Emax [%±SEM], inhibition of cAMP accumulation", "value": "87 ± 1", "unit": "%"},
      {"measurement": "EC50", "setting": "5-HT1AR; CHOK1, CAMYEL, wildtype; read-out: EC50 left [nM±SEM], inhibition of cAMP accumulation", "value": "0.88 ± 0.3", "unit": "nM"},
      {"measurement": "response latency, hot plate in 5-HT1AR KO mice", "setting": "5-HT1AR KO mice; 10 mg/kg", "value": "no significant antinociceptive effect"},
      {"measurement": "EC50", "setting": "[5]; HEK293AΔGs, F112W + M92F, read-out: EC50 [nM ± SEM], inhibition of cAMP accumulation", "value": "1.8 ± 0.6", "unit": "nM"},
      {"measurement": "Emax", "setting": "[5]", "value": "85 ± 11", "unit": "%"},
      {"measurement": "Emax", "setting": "[6]; [9]", "value": "77 ± 5", "unit": "%"},
      {"measurement": "EC50", "setting": "[6]; HEK293A, GloSensor, F112W + M92F; read-out: EC50 left [nM±SEM], inhibition of cAMP accumulation", "value": "1.7 ± 0.4", "unit": "nM"},
      {"measurement": "Emax", "setting": "5-HT1AR Y96^2.64A [7]", "value": "< 5", "unit": "%"},
      {"measurement": "response latency, 52°C hot plate", "setting": "male C56BL/6 mice [8]", "value": "antinociceptive"},
      {"measurement": "Emax", "setting": "5-HT1AR wildtype; [9]", "value": "86 ± 5", "unit": "%"},
      {"measurement": "EC50", "setting": "5-HT1AR wildtype; HEK293A, GloSensor, wildtype; read-out: EC50 left [nM±SEM], inhibition of cAMP accumulation", "value": "3.4 ± 0.8", "unit": "nM"}
    ]},
    {"smiles": "Cc1ccc(CNCC2(F)CCN(C(=O)c3ccc(F)c(Cl)c3)CC2)nc1", "note": "[befiradol, reference compound]", "values": [
      {"measurement": "decrease of affinity when Y96^2.64 and Q97^2.65 were replaced by alanine", "setting": "5-HT1AR Y96^2.64A [1]", "value": "4.2- to 13.3 fold"},
      {"measurement": "Emax", "setting": "5-HT1AR Q97^2.65A [2]", "value": "91 ± 7", "unit": "%"},
      {"measurement": "Emax", "setting": "5-HT1AR Q97^2.65A [3]", "value": "60 ± 2", "unit": "%"},
      {"measurement": "mechanical allodynia, neuropathic pain model", "setting": "male C56BL/6 mice [4]; lower, nonsedating doses (1 mg/kg)", "value": "did not reverse the mechanical allodynia"},
      {"measurement": "Emax", "setting": "5-HT1AR + Gαz", "value": "95 ± 2", "unit": "%"},
      {"measurement": "Emax", "setting": "5-HT1AR; CHO-K1; read-out: Emax [%±SEM], inhibition of cAMP accumulation", "value": "91 ± 3", "unit": "%"},
      {"measurement": "Esat [%±SEM], efficacy at saturating ligand concentrations", "setting": "5-HT1AR; CHOK1, CAMYEL; relative to serotonin maximum inhibition", "value": "65 ± 4", "unit": "%"},
      {"measurement": "response latency, hot plate in 5-HT1AR KO mice", "setting": "5-HT1AR KO mice; 1.0 mg/kg", "value": "no significant antinociceptive effect"},
      {"measurement": "Emax", "setting": "[5]", "value": "99 ± 7", "unit": "%"},
      {"measurement": "Emax", "setting": "[6]; [10]", "value": "92 ± 7", "unit": "%"},
      {"measurement": "Emax", "setting": "5-HT1AR Y96^2.64A [7]", "value": "69 ± 5", "unit": "%"},
      {"measurement": "response latency, 52°C hot plate", "setting": "male C56BL/6 mice [8]", "value": "antinociceptive"},
      {"measurement": "Emax", "setting": "5-HT1AR wildtype; [10]", "value": "93 ± 2", "unit": "%"},
      {"measurement": "Esat [%±SEM]", "setting": "5-HT1AR wildtype; HEK293A, GloSensor, wildtype", "value": "75 ± 3", "unit": "%"}
    ]}
  ]
}
